Measurements: publication PMC12041370, “AARS2-catalyzed lactylation induces follicle development and premature ovarian insufficiency” (Cell Death Discovery, 2025)
Positions count from the first letter of the chain named.

How the values were obtained:
AARS2 [1] = biological target: T1, AARS2 (Homo sapiens, UniProt Q5JTZ9, R199C); assay: isothermal titration calorimetry (Microcal); assay type: binding; details: read-out: K
T1 construct: full-length human AARS2 985 aa
T1 sequence (Q5JTZ9 11-985 R199C): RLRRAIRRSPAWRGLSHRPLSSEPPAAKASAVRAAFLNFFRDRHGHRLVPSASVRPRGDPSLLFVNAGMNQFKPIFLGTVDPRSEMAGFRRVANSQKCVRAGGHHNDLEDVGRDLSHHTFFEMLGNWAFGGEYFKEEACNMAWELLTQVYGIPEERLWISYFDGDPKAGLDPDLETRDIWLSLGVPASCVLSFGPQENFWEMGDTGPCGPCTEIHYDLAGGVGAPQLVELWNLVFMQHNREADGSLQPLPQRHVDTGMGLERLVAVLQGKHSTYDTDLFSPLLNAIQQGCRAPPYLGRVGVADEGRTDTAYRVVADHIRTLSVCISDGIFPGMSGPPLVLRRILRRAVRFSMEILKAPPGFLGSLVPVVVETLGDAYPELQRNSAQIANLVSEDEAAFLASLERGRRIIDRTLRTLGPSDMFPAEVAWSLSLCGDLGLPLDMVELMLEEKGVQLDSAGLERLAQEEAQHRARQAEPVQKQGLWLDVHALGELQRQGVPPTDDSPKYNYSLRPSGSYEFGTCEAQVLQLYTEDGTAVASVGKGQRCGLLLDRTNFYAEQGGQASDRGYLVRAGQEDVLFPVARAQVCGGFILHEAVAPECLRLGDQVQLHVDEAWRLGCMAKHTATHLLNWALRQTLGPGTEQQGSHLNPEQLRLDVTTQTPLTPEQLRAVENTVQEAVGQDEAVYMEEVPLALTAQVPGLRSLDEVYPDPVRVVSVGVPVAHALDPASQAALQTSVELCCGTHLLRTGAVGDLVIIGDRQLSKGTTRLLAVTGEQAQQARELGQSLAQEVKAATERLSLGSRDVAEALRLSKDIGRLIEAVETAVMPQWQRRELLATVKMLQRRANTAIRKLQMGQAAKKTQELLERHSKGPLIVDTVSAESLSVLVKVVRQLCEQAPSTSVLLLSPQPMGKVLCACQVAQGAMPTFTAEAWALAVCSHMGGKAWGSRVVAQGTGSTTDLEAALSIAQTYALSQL
Text: isothermal titration calorimetry (Microcal) on AARS2 | For lactate binding to the R199C mutant, the parameters were as follows

AARS2 [2] = biological target: T2, AARS2 (Homo sapiens, UniProt Q5JTZ9); assay: isothermal titration calorimetry (Microcal); assay type: binding; details: read-out: K
T2 construct: full-length human AARS2 985 aa
T2 sequence (Q5JTZ9 11-985): T1 sequence (Q5JTZ9 11-985 R199C) with C189R
Text: isothermal titration calorimetry (Microcal) on AARS2 | The parameters of lactate binding to AARS2 were as follows

AARS2 [3] = biological target: T2, AARS2; assay: in vitro lactylation of PDHA1 and CPT2, Western blot; assay type: biochemical; details: β-alanine in reaction mix, concentration not told

Row | Kd (AARS2 [1]) [µM] | Kd (AARS2 [2]) [µM] | SMILES | inhibition (AARS2 [3])
1 | 2.6 to 3.7 | 8.23 to 17.9 | C[C@H](O)C(=O)O [lactate] | –
2 | – | – | NCCC(=O)O [β-alanine] | β-alanine inactivated lactyltransferase activities of both AARS2 and R199C
